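Five compound concentrations were applied to cells in 96-well plates for 48 hours; endpoints were derived by simple linear interpolation of the resulting dose-response curve. Here, GI50 denotes the concentration required for 50% inhibition of growth.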 Activity calls are given as the source filed them. No stated cut-off is given here; in the data, active = GI50 up to about 1.1 µM and inactive = higher.
Assays:
Experiment in all cases: DTP human tumour cell line panel, 48 h
786-0 = system: 786-0
COLO 205 = system: COLO 205
EKVX = system: EKVX
HL-60 = system: HL-60
HT-29 = system: HT-29
M14 = system: M14
NCI-H226 = system: NCI-H226
NCI-H522 = system: NCI-H522
OVCAR-5 = system: OVCAR-5
OVCAR-8 = system: OVCAR-8
SF-539 = system: SF-539
SK-MEL-28 = system: SK-MEL-28
SK-OV-3 = system: SK-OV-3
SN12C = system: SN12C
SNB-75 = system: SNB-75
U-251 = system: U-251
UACC-62 = system: UACC-62
UO-31 = system: UO-31
HOP-92 = system: HOP-92

Measured: GI50

Cc1cc(N(CCC#N)CCC#N)ccc1/N=N/c1cc(Cl)ccc1Cl
inactive: 786-0 14.6 µM | COLO 205 2.04 µM | EKVX 13.6 µM | HL-60 3.39 µM | HT-29 2.64 µM | M14 3.46 µM | NCI-H226 6.38 µM | NCI-H522 1.49 µM | OVCAR-5 14.4 µM | OVCAR-8 7.74 µM | SF-539 6.28 µM | SK-MEL-28 7.87 µM | SK-OV-3 16.3 µM | SN12C 13.4 µM | SNB-75 13 µM | U-251 18.3 µM | UACC-62 10.1 µM | UO-31 16.7 µM

CC1NC(=O)C2=C1C(N)=NC(=O)C2 (centres undefined)
inactive: 786-0 > 100 µM | COLO 205 > 100 µM | EKVX > 100 µM | HOP-92 > 100 µM | M14 > 100 µM | NCI-H226 > 100 µM | NCI-H522 > 100 µM | OVCAR-5 > 100 µM | OVCAR-8 > 100 µM | SF-539 > 100 µM | SK-MEL-28 > 100 µM | SK-OV-3 > 100 µM | SN12C > 100 µM | SNB-75 > 100 µM | U-251 > 100 µM | UACC-62 > 100 µM | UO-31 > 100 µM

Cc1ccc2oc(=O)c(-c3ccccc3)nc2c1
inactive: 786-0 23.3 µM | COLO 205 24.5 µM | EKVX 39.5 µM | HL-60 > 10 µM | HT-29 45.6 µM | M14 43.3 µM | NCI-H226 37.8 µM | NCI-H522 15.3 µM | OVCAR-5 39.4 µM | OVCAR-8 36.4 µM | SF-539 18.2 µM | SK-MEL-28 50.4 µM | SN12C 31.8 µM | SNB-75 37.5 µM | UO-31 27 µM

CCOC(=O)/C=C1\Oc2ccccc2C1(C)O (centres undefined)
inactive: 786-0 > 100 µM | COLO 205 > 100 µM | EKVX > 100 µM | HL-60 > 100 µM | HOP-92 > 100 µM | HT-29 > 100 µM | M14 > 100 µM | NCI-H226 > 100 µM | NCI-H522 > 100 µM | OVCAR-5 > 100 µM | OVCAR-8 > 100 µM | SK-MEL-28 > 100 µM | SK-OV-3 > 100 µM | SN12C > 100 µM | SNB-75 > 100 µM | U-251 > 100 µM | UACC-62 > 100 µM | UO-31 > 100 µM

CC(=O)NC(CCCNC(=O)N(C)N=O)C(=O)NCc1ccccc1 (centres undefined)
inactive: 786-0 > 100 µM | COLO 205 > 100 µM | EKVX > 100 µM | HOP-92 > 100 µM | HT-29 > 100 µM | M14 > 100 µM | NCI-H226 > 100 µM | NCI-H522 > 100 µM | OVCAR-5 > 100 µM | OVCAR-8 > 100 µM | SF-539 > 100 µM | SK-MEL-28 > 100 µM | SK-OV-3 > 100 µM | SN12C > 100 µM | SNB-75 52.1 µM | U-251 > 100 µM | UACC-62 > 100 µM | UO-31 > 100 µM

C#C[C@H](CCCC)OC(=O)N[C@H](C)c1ccccc1
inactive: 786-0 49.1 µM | COLO 205 21.7 µM | EKVX 50.6 µM | HL-60 17.5 µM | HOP-92 57.5 µM | HT-29 40.2 µM | M14 41.8 µM | NCI-H522 29.2 µM | OVCAR-5 48 µM | OVCAR-8 49.3 µM | SK-MEL-28 54.5 µM | SK-OV-3 > 100 µM | SN12C > 100 µM | SNB-75 41.2 µM | U-251 59.8 µM | UACC-62 80.9 µM | UO-31 26.9 µM

COc1ccc2oc(-c3cccnc3)cc(=O)c2c1
inactive: 786-0 > 100 µM | COLO 205 > 100 µM | HL-60 52.5 µM | HOP-92 46.1 µM | HT-29 59.4 µM | M14 > 100 µM | NCI-H226 > 100 µM | OVCAR-5 > 10 µM | SK-MEL-28 > 100 µM | SN12C 71.4 µM | SNB-75 40.8 µM | U-251 > 100 µM | UACC-62 80.7 µM | UO-31 27.2 µM

NC(=O)c1ccccc1NC(=O)C(=O)Nc1n[nH]c(N)n1
inactive: 786-0 > 100 µM | COLO 205 > 100 µM | EKVX > 100 µM | HL-60 > 100 µM | HT-29 > 100 µM | M14 > 100 µM | NCI-H226 > 100 µM | NCI-H522 > 100 µM | OVCAR-5 > 100 µM | OVCAR-8 > 100 µM | SF-539 > 100 µM | SK-OV-3 > 100 µM | SN12C > 100 µM | SNB-75 > 100 µM | U-251 > 100 µM | UACC-62 > 100 µM | UO-31 > 100 µM

C[C@]12CCC(=O)C=C1CC[C@@H]1C2CC[C@]2(C)NC(=O)C(C#N)CC12 (some centres undefined)
inactive: 786-0 > 100 µM | HL-60 > 100 µM | HT-29 30.8 µM | M14 > 100 µM | NCI-H226 > 100 µM | OVCAR-5 > 100 µM | OVCAR-8 > 100 µM | SF-539 > 100 µM | SK-MEL-28 > 100 µM | SK-OV-3 > 100 µM | SNB-75 > 100 µM | U-251 > 100 µM | UACC-62 > 100 µM | UO-31 > 100 µM

CN[C@@H](C)[C@@H](NC)c1ccccc1
inactive: 786-0 > 100 µM | COLO 205 > 100 µM | EKVX > 100 µM | HOP-92 > 100 µM | HT-29 > 100 µM | M14 > 100 µM | NCI-H226 > 100 µM | NCI-H522 > 100 µM | OVCAR-8 > 100 µM | SF-539 > 100 µM | SK-MEL-28 > 100 µM | SK-OV-3 > 100 µM | SN12C > 100 µM | SNB-75 > 100 µM | U-251 1.52 µM | UACC-62 > 100 µM | UO-31 > 100 µM

CC(=O)Nc1cccc2[nH]c3ccccc3c(=O)c12
inactive: 786-0 17.6 µM | COLO 205 16.3 µM | EKVX 25.1 µM | HL-60 12.6 µM | HT-29 17 µM | M14 30.9 µM | NCI-H226 14.8 µM | NCI-H522 10.3 µM | OVCAR-5 20.6 µM | OVCAR-8 16.4 µM | SF-539 21.6 µM | SK-MEL-28 31.5 µM | SK-OV-3 32.1 µM | SN12C 22.4 µM | SNB-75 8.67 µM | U-251 24.1 µM | UACC-62 13.8 µM | UO-31 10.2 µM

COc1ccc2c(c1)O[C@H]1c3ccc(O)cc3OC[C@@H]21
inactive: COLO 205 24.1 µM | EKVX 34 µM | HL-60 18.1 µM | HT-29 34.4 µM | M14 19.2 µM | NCI-H226 25.1 µM | NCI-H522 22.7 µM | OVCAR-5 48.6 µM | OVCAR-8 36 µM | SF-539 20.7 µM | SK-OV-3 39.5 µM | SN12C 38.8 µM | SNB-75 11.2 µM | U-251 27.9 µM | UACC-62 14.3 µM | UO-31 20 µM
